Experimental data published in ChEMBL document CHEMBL4800727 (2021).
Calls of active or inactive are those of the source. The calls are words filed in the database; no cut-off is given here.

Assays:
[1] = cML1 Cerep panel; conditions: Compound concentration 10.0 uM
[2] = biological target: Ephrin type-B receptor 1 (Homo sapiens) (UniProt P54762); test: EPH receptor B1 Millipore kinase panel; conditions: Compound concentration 10.0 uM
[3] = biological target: Prostaglandin E2 receptor EP4 subtype (Homo sapiens) (UniProt P35408); test: hEP4 Cerep panel; conditions: Compound concentration 10.0 uM
Rattus norvegicus [4] = species on record: Rattus norvegicus; conditions: Compound concentration 10.0 uM
[5] = biological target: Type-1 angiotensin II receptor (Homo sapiens) (UniProt P30556); test: hAT1 Cerep panel; conditions: Compound concentration 10.0 uM
[6] = biological target: Substance-P receptor (Homo sapiens) (UniProt P25103); test: hNK1 Cerep panel; conditions: Compound concentration 10.0 uM
[7] = biological target: Insulin receptor-related protein (Homo sapiens) (UniProt P14616); test: insulin receptor-related receptor Millipore kinase panel; conditions: Compound concentration 10.0 uM
[8] = biological target: Serine/threonine-protein kinase haspin (Homo sapiens) (UniProt Q8TF76); test: germ cell associated 2 (haspin) Millipore kinase panel; conditions: Compound concentration 10.0 uM
[9] = biological target: Ribosomal protein S6 kinase beta-1 (Homo sapiens) (UniProt P23443); test: ribosomal protein S6 kinase, 70kDa, polypeptide 1 Millipore kinase panel; conditions: Compound concentration 10.0 uM
[10] = biological target: Serine/threonine-protein kinase Nek7 (Homo sapiens) (UniProt Q8TDX7); test: NIMA -related kinase 7 Millipore kinase panel; conditions: Compound concentration 10.0 uM
Serine/threonine-protein kinase Nek7 (Homo sapiens), sequence (Q8TDX7 whole entry, looked up): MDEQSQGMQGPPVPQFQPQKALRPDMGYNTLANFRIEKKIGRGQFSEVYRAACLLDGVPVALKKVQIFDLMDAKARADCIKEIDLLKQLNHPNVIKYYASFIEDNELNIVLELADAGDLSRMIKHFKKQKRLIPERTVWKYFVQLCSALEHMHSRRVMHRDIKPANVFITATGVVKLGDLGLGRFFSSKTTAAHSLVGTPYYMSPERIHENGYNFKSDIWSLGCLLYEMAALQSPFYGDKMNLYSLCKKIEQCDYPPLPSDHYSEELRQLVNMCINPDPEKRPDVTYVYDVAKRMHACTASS

[11] = biological target: Ephrin type-A receptor 3 (Homo sapiens) (UniProt P29320); test: EPH receptor A3 Millipore kinase panel; conditions: Compound concentration 10.0 uM
Ephrin type-A receptor 3 (Homo sapiens), sequence (P29320 whole entry): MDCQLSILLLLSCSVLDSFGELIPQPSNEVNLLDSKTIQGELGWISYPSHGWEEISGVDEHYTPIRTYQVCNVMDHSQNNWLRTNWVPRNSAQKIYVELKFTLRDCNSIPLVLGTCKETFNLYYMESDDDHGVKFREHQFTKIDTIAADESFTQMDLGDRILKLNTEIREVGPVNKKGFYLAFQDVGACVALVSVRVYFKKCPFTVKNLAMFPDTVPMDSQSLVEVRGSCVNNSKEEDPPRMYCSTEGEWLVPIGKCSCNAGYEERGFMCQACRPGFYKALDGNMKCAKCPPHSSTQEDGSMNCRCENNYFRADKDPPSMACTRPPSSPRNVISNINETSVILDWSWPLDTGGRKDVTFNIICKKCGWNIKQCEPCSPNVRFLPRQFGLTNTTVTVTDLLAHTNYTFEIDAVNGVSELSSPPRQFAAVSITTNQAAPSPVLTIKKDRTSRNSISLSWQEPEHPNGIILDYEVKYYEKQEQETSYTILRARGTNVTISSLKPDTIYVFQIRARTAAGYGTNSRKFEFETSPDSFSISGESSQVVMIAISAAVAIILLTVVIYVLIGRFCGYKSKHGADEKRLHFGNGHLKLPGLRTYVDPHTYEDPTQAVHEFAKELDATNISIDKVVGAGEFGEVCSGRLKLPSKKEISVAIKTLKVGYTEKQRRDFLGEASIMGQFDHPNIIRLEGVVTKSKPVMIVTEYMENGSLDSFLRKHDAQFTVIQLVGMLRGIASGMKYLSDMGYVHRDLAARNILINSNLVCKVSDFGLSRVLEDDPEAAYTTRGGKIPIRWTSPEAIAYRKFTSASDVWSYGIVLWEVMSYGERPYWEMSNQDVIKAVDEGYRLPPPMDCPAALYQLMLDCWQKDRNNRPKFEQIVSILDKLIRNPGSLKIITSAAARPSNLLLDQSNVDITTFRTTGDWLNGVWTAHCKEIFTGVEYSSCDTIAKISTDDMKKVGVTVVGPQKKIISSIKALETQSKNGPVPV

[12] = biological target: Serine/threonine-protein kinase pim-3 (Homo sapiens) (UniProt Q86V86); test: pim-3 oncogene Millipore kinase panel; conditions: Compound concentration 10.0 uM
[13] = biological target: Mast/stem cell growth factor receptor Kit (Homo sapiens) (UniProt P10721); test: v-kit Hardy-Zuckerman 4 feline sarcoma viral oncogene homolog Millipore kinase panel; conditions: Compound concentration 10.0 uM
[14] = biological target: Mitogen-activated protein kinase 8 (Homo sapiens) (UniProt P45983); test: mitogen-activated protein kinase 8 Millipore kinase panel; conditions: Compound concentration 10.0 uM
Mitogen-activated protein kinase 8 (Homo sapiens), sequence (P45983 whole entry): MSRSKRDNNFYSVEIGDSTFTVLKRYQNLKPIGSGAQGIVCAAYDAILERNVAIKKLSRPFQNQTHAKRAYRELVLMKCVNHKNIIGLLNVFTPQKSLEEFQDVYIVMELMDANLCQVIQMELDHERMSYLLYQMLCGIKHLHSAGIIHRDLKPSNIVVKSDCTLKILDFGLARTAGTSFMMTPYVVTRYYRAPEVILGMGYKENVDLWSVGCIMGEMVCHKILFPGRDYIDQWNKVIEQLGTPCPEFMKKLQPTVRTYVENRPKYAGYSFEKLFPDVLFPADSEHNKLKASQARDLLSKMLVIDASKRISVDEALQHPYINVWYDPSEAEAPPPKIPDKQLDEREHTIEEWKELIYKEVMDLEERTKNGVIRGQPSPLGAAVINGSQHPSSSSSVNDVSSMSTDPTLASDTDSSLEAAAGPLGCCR

[15] = biological target: Tyrosine-protein kinase Lyn (Homo sapiens) (UniProt P07948); test: v-yes-1 Yamaguchi sarcoma viral related oncogene homolog Millipore kinase panel; conditions: Compound concentration 10.0 uM
[16] = biological target: 5-hydroxytryptamine receptor 5A (Homo sapiens) (UniProt P47898); test: h5HT5A Cerep panel; conditions: Compound concentration 10.0 uM
[17] = biological target: Tyrosine-protein kinase HCK (Homo sapiens) (UniProt P08631); test: hemopoietic cell kinase (activated) Millipore kinase panel; conditions: Compound concentration 10.0 uM
[18] = biological target: Rho-associated protein kinase 2 (Homo sapiens) (UniProt O75116); test: Rho-associated, coiled-coil containing protein kinase 2 Millipore kinase panel; conditions: Compound concentration 10.0 uM
[19] = biological target: C-C chemokine receptor type 1 (Homo sapiens) (UniProt P32246); test: hCCR1 Cerep panel; conditions: Compound concentration 10.0 uM
[20] = biological target: D(1B) dopamine receptor (Homo sapiens) (UniProt P21918); conditions: Compound concentration 10.0 uM
[21] = biological target: cGMP-dependent 3',5'-cyclic phosphodiesterase (Homo sapiens, UniProt O00408); test: hPDE2A PDE scan
[22] = biological target: Adenosine receptor A1 (Homo sapiens) (UniProt P30542); test: hA1 Cerep panel; conditions: Compound concentration 10.0 uM
[23] = biological target: Phosphatidylinositol 4,5-bisphosphate 3-kinase catalytic subunit gamma isoform (Homo sapiens) (UniProt P48736); test: phosphoinositide-3-kinase, catalytic, gamma polypeptide Millipore kinase panel; conditions: Compound concentration 10.0 uM
[24] = biological target: Protein kinase C gamma type (Homo sapiens) (UniProt P05129); test: protein kinase C, gamma Millipore kinase panel; conditions: Compound concentration 10.0 uM
[25] = biological target: Insulin receptor (Homo sapiens) (UniProt P06213); test: insulin receptor (activated) Millipore kinase panel; conditions: Compound concentration 10.0 uM
[26] = biological target: Histamine H4 receptor (Homo sapiens) (UniProt Q9H3N8); conditions: Compound concentration 10.0 uM
Histamine H4 receptor (Homo sapiens), sequence (Q9H3N8 whole entry): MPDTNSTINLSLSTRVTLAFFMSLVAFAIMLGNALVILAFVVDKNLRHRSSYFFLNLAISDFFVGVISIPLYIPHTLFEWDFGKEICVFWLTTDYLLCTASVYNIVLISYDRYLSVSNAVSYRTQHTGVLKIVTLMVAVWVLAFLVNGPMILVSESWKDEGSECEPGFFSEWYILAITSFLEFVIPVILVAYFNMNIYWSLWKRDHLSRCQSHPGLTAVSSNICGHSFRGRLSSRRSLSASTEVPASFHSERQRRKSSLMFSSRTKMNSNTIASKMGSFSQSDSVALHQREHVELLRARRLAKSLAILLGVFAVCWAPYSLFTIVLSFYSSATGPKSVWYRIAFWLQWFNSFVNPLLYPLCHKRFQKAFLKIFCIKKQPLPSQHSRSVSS

[27] = biological target: Tyrosine-protein kinase Fer (Homo sapiens) (UniProt P16591); test: fer (fps/fes related) tyrosine kinase Millipore kinase panel; conditions: Compound concentration 10.0 uM
[28] = biological target: Progesterone receptor (Homo sapiens) (UniProt P06401); test: hPR Cerep panel; conditions: Compound concentration 10.0 uM
[29] = biological target: Tyrosine-protein kinase ABL2 (Homo sapiens) (UniProt P42684); test: v-abl Abelson murine leukemia viral oncogene homolog 2 Millipore kinase panel; conditions: Compound concentration 10.0 uM
[30] = biological target: Serine/threonine-protein kinase Nek3 (Homo sapiens) (UniProt P51956); test: NIMA -related kinase 3 Millipore kinase panel; conditions: Compound concentration 10.0 uM
[31] = biological target: Homeodomain-interacting protein kinase 3 (Homo sapiens) (UniProt Q9H422); test: homeodomain interacting protein kinase 3 Millipore kinase panel; conditions: Compound concentration 10.0 uM
Homeodomain-interacting protein kinase 3 (Homo sapiens), sequence (Q9H422 whole entry, looked up): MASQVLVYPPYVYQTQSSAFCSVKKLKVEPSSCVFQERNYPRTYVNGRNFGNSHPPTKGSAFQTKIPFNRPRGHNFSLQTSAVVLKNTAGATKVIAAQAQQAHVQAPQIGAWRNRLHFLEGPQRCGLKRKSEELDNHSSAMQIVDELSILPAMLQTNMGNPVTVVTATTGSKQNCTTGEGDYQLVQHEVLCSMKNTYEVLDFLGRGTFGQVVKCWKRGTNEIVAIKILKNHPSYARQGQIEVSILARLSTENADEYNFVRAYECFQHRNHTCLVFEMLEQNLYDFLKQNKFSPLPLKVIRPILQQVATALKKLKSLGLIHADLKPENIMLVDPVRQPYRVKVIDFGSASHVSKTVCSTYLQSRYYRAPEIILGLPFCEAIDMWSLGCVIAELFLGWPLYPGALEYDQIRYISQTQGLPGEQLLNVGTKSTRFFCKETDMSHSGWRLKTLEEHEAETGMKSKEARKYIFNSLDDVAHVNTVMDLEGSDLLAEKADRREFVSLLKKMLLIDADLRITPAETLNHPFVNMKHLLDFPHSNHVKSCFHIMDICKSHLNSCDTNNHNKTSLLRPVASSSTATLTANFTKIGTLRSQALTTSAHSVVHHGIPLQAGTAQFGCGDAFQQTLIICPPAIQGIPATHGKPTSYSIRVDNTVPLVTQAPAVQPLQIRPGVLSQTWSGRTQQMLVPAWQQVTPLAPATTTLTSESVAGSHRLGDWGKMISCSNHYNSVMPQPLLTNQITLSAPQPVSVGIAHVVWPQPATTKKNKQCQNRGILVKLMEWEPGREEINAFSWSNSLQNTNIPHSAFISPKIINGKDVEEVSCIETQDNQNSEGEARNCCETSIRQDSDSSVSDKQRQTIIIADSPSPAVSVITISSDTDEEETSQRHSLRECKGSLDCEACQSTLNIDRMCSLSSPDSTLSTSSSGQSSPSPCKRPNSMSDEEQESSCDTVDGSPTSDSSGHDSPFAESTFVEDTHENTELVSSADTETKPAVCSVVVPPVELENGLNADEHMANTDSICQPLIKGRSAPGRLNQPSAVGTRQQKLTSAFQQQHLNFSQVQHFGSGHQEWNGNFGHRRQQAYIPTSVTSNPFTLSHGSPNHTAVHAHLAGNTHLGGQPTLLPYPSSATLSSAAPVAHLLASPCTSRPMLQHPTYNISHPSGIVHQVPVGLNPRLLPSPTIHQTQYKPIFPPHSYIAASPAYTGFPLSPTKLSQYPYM

Rattus norvegicus [32] = species on record: Rattus norvegicus; test: rSLC6/GABA Cerep panel; conditions: Compound concentration 10.0 uM
[33] = biological target: Vasopressin V1a receptor (Homo sapiens) (UniProt P37288); test: hV1a Cerep panel; conditions: Compound concentration 10.0 uM
Vasopressin V1a receptor (Homo sapiens), sequence (P37288 whole entry, looked up): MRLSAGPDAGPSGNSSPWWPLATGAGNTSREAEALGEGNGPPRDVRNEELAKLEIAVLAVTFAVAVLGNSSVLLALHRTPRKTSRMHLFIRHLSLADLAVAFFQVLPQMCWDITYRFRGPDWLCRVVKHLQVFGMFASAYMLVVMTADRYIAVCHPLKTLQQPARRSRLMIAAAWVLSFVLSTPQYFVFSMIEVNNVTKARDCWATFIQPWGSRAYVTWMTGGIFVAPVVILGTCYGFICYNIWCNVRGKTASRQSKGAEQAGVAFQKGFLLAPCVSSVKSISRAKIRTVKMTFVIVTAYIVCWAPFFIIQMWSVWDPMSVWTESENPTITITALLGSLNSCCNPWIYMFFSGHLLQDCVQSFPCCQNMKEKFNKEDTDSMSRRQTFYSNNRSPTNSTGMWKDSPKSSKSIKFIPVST

[34] = biological target: Gastrin/cholecystokinin type B receptor (Homo sapiens) (UniProt P32239); test: hCCK2 Cerep panel; conditions: Compound concentration 10.0 uM
[35] = biological target: Macrophage-stimulating protein receptor (Homo sapiens) (UniProt Q04912); test: macrophage stimulating 1 receptor Millipore kinase panel; conditions: Compound concentration 10.0 uM
[36] = biological target: Serine/threonine-protein kinase ULK2 (Homo sapiens) (UniProt Q8IYT8); test: unc-51-like kinase 2 Millipore kinase panel; conditions: Compound concentration 10.0 uM
[37] = biological target: CDK3/cyclin E (Homo sapiens) (UniProt P24864+O96020+Q00526); test: cyclin-dependent kinase 3 / cyclinE Millipore kinase panel; type: protein-complex assay; conditions: Compound concentration 10.0 uM
[38] = biological target: 5-hydroxytryptamine receptor 2A (Homo sapiens) (UniProt P28223); test: h5HT2A Cerep panel; conditions: Compound concentration 10.0 uM
5-hydroxytryptamine receptor 2A (Homo sapiens), sequence (P28223 whole entry): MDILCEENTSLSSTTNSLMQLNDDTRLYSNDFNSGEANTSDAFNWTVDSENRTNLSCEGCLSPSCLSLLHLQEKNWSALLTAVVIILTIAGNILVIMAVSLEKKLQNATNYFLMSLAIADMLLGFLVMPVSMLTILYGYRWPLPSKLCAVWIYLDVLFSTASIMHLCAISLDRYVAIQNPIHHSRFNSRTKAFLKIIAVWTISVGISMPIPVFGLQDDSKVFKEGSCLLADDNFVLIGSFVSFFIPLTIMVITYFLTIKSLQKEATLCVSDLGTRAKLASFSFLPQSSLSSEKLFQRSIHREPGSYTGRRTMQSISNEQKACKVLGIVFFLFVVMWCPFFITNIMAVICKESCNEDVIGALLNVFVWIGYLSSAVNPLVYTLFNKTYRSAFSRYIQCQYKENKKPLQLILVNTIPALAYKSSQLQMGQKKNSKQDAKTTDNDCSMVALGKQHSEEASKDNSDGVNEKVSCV

[39] = biological target: 5-hydroxytryptamine receptor 2B (Homo sapiens, UniProt P41595); test: h5HT2B Cerep panel; conditions: Compound concentration 10.0 uM
[40] = biological target: Vascular endothelial growth factor receptor 1 (Homo sapiens) (UniProt P17948); test: fms-related tyrosine kinase 1 Millipore kinase panel; conditions: Compound concentration 10.0 uM
[41] = biological target: Amine oxidase [flavin-containing] A (Homo sapiens, UniProt P21397); test: hMAOA Cerep panel; conditions: 10 µM, compound concentration 10 uM
[42] = biological target: Serine/threonine-protein kinase 10 (Homo sapiens) (UniProt O94804); test: serine/threonine kinase 10 Millipore kinase panel; conditions: Compound concentration 10.0 uM
[43] = biological target: Tyrosine-protein kinase Lck (Homo sapiens) (UniProt P06239); test: lymphocyte-specific protein tyrosine kinase (activated) Millipore kinase panel; conditions: Compound concentration 10.0 uM
[44] = biological target: Serine/threonine-protein kinase Sgk2 (Homo sapiens) (UniProt Q9HBY8); test: serum/glucocorticoid regulated kinase 2 Millipore kinase panel; conditions: Compound concentration 10.0 uM
[45] = biological target: G protein-coupled receptor kinase 6 (Homo sapiens) (UniProt P43250); test: G protein-coupled receptor kinase 6 Millipore kinase panel; conditions: Compound concentration 10.0 uM
[46] = biological target: BDNF/NT-3 growth factors receptor (Homo sapiens) (UniProt Q16620); test: neurotrophic tyrosine kinase, receptor, type 2 Millipore kinase panel; conditions: Compound concentration 10.0 uM
[47] = biological target: Ephrin type-B receptor 3 (Homo sapiens) (UniProt P54753); test: EPH receptor B3 Millipore kinase panel; conditions: Compound concentration 10.0 uM
[48] = biological target: cAMP and cAMP-inhibited cGMP 3',5'-cyclic phosphodiesterase 10A (Mus musculus, UniProt Q8CA95); test: SPA with mouse PDE10A
[49] = biological target: PAS domain-containing serine/threonine-protein kinase (Homo sapiens) (UniProt Q96RG2); test: PAS domain containing serine/threonine kinase Millipore kinase panel; conditions: Compound concentration 10.0 uM
[50] = PPAR1C Cerep panel; conditions: Compound concentration 10.0 uM
[51] = biological target: D(1A) dopamine receptor (Homo sapiens) (UniProt P21728); test: hD1 Cerep panel; conditions: Compound concentration 10.0 uM
[52] = biological target: Beta-3 adrenergic receptor (Homo sapiens) (UniProt P13945); conditions: Compound concentration 10.0 uM

**Q.** Which results are given for `COCCc1ccc(-c2c(C)nc3c(N4CCOCC4)ccnn23)cn1` [JNJ-42396302]?
**A.** effect [1]: -4.5%; inhibition [2]: 2%; effect [3]: 13.6%; inhibition (Rattus norvegicus [4]): 2.18%; effect [5]: 14.4%; effect [6]: 3.05%; inhibition [7]: 10%; inhibition [8]: 5%; inhibition [9]: -7%; inhibition [10]: 2%; inhibition [11]: 4%; inhibition [12]: 11%; inhibition [13]: 4%; inhibition [14]: -3%; inhibition [15]: -1%; effect [16]: 5.7%; inhibition [17]: -3%; inhibition [18]: -3%; effect [19]: -7.45%; inhibition [20]: 25.3%; Ki [21]: 32 µM; effect [22]: 11.3%; inhibition [23]: -4%; inhibition [24]: -4%; inhibition [25]: -2%; inhibition [26]: -1.08%; inhibition [27]: 0%; effect [28]: 13.5%; inhibition [29]: 6%; inhibition [30]: 4%; inhibition [31]: -6%; effect (Rattus norvegicus [32]): -6%; effect [33]: 8.9%; effect [34]: -5.55%; inhibition [35]: 3%; inhibition [36]: 6%; inhibition [37]: 7%; effect [38]: 4.05%; effect [39]: 2.4%; inhibition [40]: -5%; effect [41]: 13.8%; inhibition [42]: 0%; inhibition [43]: -4%; inhibition [44]: -3%; inhibition [45]: 3%; inhibition [46]: -5%; inhibition [47]: 3%; Ki [48]: 0.011 µM (active); inhibition [49]: 5%; effect [50]: -2.05%; effect [51]: 6.2%

**Q.** With `c1ccc(C2CCN(c3cnc4c(N5CCOCC5)nccn34)CC2)cc1` as the molecule, how does the inhibition [52] read?
**A.** 2.32%
